pIC50: −log10 of the molar value. Calls of active or inactive are those of the source. The calls are words filed in the database; no cut-off is given here.
What was measured:
[1] = molecular target: T1, Bifunctional epoxide hydrolase 2 (Mus musculus, UniProt P34914)
T1 sequence (P34914 whole entry): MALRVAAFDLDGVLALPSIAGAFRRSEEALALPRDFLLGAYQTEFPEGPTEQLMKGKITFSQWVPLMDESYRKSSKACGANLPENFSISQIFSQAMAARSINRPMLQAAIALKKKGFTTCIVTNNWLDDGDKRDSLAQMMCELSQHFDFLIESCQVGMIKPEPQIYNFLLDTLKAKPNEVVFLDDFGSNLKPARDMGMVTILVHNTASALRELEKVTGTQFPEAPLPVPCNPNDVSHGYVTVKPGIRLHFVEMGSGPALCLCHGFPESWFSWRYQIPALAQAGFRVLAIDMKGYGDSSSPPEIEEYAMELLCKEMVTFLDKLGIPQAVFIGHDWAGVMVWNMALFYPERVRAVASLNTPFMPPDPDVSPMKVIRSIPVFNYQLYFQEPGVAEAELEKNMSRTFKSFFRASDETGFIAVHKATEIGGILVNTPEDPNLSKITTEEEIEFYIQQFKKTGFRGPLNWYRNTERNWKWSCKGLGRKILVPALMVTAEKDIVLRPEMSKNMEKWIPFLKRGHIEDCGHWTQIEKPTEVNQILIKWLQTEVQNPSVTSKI

Mus musculus [2] = test: Protection against LPS-induced sepsis in C57BL/6J mouse model assessed as survival rate at 5 mg/kg, iv measured after 48 hrs relative to control; assay type: functional
Mus musculus [3] = test: Protection against LPS-induced sepsis in C57BL/6J mouse model assessed as survival rate at 5 mg/kg, iv measured after 24 hrs relative to control; assay type: functional
Mus musculus [4] = test: Protection against LPS-induced sepsis in C57BL/6J mouse model assessed as […] at 5 mg/kg, iv measured after 32 hrs relative to control; assay type: functional
Mus musculus [5] = test: Protection against LPS-induced sepsis in C57BL/6J mouse model assessed as survival rate at 5 mg/kg, iv measured after 72 hrs relative to control; assay type: functional
[6] = Cytotoxicity in HEK293T cells assessed as cell viability at 5 uM incubated for 48 hrs by CCK8 assay relative to control; assay type: toxicity, cell-based, HEK-293T; conditions: human, read-out: Activity
[7] = Cytotoxicity against human HepG2 cells assessed as cell viability at 5 uM incubated for 48 hrs by CCK8 assay relative to control; assay type: toxicity, cell-based; conditions: read-out: Activity
[8] = Cytotoxicity against human HepG2 cells assessed as cell viability at 50 uM incubated for 48 hrs by CCK8 assay relative to control; assay type: toxicity, cell-based; conditions: read-out: Activity
[9] = Cytotoxicity in HEK293T cells assessed as cell viability at 50 uM incubated for 48 hrs by CCK8 assay relative to control; assay type: toxicity, cell-based, HEK-293T; conditions: human, read-out: Activity
[10] = Toxicity in LPS-induced sepsis C57BL/6J mouse model assessed as effect on survival rate at 0.5 to 5 mg/kg, ip measured upto 72 hrs; assay type: organism-based; conditions: in vivo, dose 0.5-5 mg/kg
Mus musculus [11] = test: Protection against LPS-induced sepsis in C57BL/6J mouse model assessed as delay in death time at 0.5 to 5 mg/kg, ip measured upto 72 hrs; assay type: functional, organism-based; conditions: dose 0.5-5 mg/kg
[12] = molecular target: T2, Bifunctional epoxide hydrolase 2 (Homo sapiens, UniProt P34913)
T2 sequence (P34913 whole entry): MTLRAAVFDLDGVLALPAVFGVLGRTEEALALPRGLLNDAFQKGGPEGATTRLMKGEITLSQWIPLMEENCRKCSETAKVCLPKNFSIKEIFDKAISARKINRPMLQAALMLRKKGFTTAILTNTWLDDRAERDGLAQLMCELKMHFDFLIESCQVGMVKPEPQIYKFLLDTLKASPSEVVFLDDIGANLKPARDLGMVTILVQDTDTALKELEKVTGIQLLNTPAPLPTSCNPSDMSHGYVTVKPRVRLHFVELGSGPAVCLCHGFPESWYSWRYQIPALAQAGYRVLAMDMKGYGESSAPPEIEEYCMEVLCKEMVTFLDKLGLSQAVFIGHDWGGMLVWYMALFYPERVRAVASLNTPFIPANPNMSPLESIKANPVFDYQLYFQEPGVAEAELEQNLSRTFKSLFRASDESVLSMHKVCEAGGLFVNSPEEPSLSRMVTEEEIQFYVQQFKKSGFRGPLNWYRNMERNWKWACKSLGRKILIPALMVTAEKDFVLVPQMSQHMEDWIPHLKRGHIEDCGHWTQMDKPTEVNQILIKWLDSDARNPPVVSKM

| pIC50 [1] | SMILES | other results |
| --- | --- | --- |
| 8.69 | CC(C)CNC(=O)Nc1cccc(/C=C/c2ccc3c(c2)OCO3)c1 |  |
| 7.85 | COc1cc(/C=C/c2ccc(CNC(=O)NCC(C)C)cc2)cc(OC)c1 |  |
| 7.35 | COc1cc(/C=C/c2cccc(NC(=O)NCC(C)C)c2)cc(OC)c1 |  |
| 8.34 | CC(C)CNC(=O)Nc1ccc(/C=C/c2ccc3c(c2)OCO3)c(Cl)c1 |  |
| 8.49 | Cc1cc(NC(=O)NCC(C)C)ccc1/C=C/c1ccc2c(c1)OCO2 |  |
| 8.60 | COc1cc(/C=C/c2ccc(NC(=O)NCC3CCOCC3)cc2)cc(OC)c1 |  |
| 8.57 | CC(C)CNC(=O)Nc1ccc(/C=C/c2ccc3c(c2)OCO3)cc1 |  |
| 8.24 | O=C(NCC1CCOCC1)Nc1ccc(/C=C/c2cccc(C(=O)NCc3ccccn3)c2)cc1 |  |
| 8.10 | CCC(=O)N1CCC(NC(=O)Nc2ccc(/C=C/c3ccc4c(c3)OCO4)cc2)CC1 |  |
| 8.32 | COc1ccc(/C=C/c2ccc(NC(=O)NCC(C)C)cc2)cc1O |  |
|  | C[C@@H]1C[C@H]2[C@@H]3CCC4=CC(=O)C=C[C@]4(C)[C@@]3(F)[C@@H](O)C[C@]2(C)[C@@]1(O)C(=O)CO [DEXAMETHASONE] | survival at 5 mg/kg (Mus musculus [2]): 100%; survival at 5 mg/kg (Mus musculus [3]): 100%; survival at 5 mg/kg (Mus musculus [5]): 100% |
| 8.90 | O=C(Cn1ccc2ccccc21)Nc1cccc(/C=C/c2ccc(NC(=O)NCC3CCOCC3)cc2)c1 |  |
| 7.04 | COc1cc(/C=C/c2cccc(NC(=O)NCC3CCOCC3)c2)cc(OC)c1 |  |
| 8.91 | CC(C)CNC(=O)Nc1ccc(/C=C/c2ccc3c(c2)OCO3)cc1F |  |
| 8.17 | CC(C)CNC(=O)Nc1ccc(/C=C/c2ccc3c(c2)OCO3)c(F)c1 |  |
| 8.85 | O=C(Cc1ccncc1)Nc1cccc(/C=C/c2ccc(NC(=O)NCC3CCOCC3)cc2)c1 |  |

| pIC50 [1] | SMILES | other results |
| --- | --- | --- |
| 7.17 | O=C(Cc1ccccn1)Nc1cccc(NC(=O)c2ccc(NC(=O)NCC3CCOCC3)cc2)c1 |  |
|  | CC[C@H](C)C(=O)N1CCC(NC(=O)Nc2ccc(OC(F)(F)F)c(F)c2)CC1 | survival at 5 mg/kg (Mus musculus [2]): 0%; survival at 5 mg/kg (Mus musculus [3]): 30%; survival at 5 mg/kg (Mus musculus [5]): 0% |
| 6.04 | COc1cc(/C=C/c2ccc(NC(=O)NCC3CCN(C)CC3)cc2)cc(OC)c1 |  |
| 8.49 | Cc1cc(/C=C/c2ccc3c(c2)OCO3)ccc1NC(=O)NCC(C)C |  |
| 5.28 | COc1cc(/C=C/c2ccc(NC(=O)N(C)C)cc2)cc(OC)c1 |  |
| 8.07 | O=C(NCC1CCOCC1)Nc1ccc(/C=C/c2cccc(NC(=O)c3ccccn3)c2)cc1 |  |
| 8.91 | CC(C)CCNC(=O)Nc1ccc(/C=C/c2ccc3c(c2)OCO3)cc1 |  |
| 8.46 | O=C(Cc1ccccn1)Nc1ccc(/C=C/c2ccc(NC(=O)NCC3CCOCC3)cc2)cc1 |  |
| 8.56 | O=C(NCC1CCOCC1)Nc1cccc(/C=C/c2ccc3c(c2)OCO3)c1 |  |
| 5.59 | CN1CCC(NC(=O)Nc2ccc(/C=C/c3ccc4c(c3)OCO4)cc2)CC1 |  |
| 8.72 | COc1cc(/C=C/c2ccc(NC(=O)NCC(C)C)cc2)cc(OC)c1 |  |
| 8.48 | O=C(Cn1c2ccccc2c2ccccc21)Nc1cccc(/C=C/c2ccc(NC(=O)NCC3CCOCC3)cc2)c1 |  |
| 7.63 | CC(C)CCNC(=O)Nc1cccc(/C=C/c2ccc3c(c2)OCO3)c1 |  |
| 5.56 | CN1CCN(C(=O)Nc2ccc(/C=C/c3ccc4c(c3)OCO4)cc2)CC1 |  |
| 6.70 | CCC(=O)N1CCN(C(=O)Nc2ccc(/C=C/c3ccc4c(c3)OCO4)cc2)CC1 |  |

| SMILES | pIC50 [1] | other results |
| --- | --- | --- |
| O=C(Cc1ccc2ncccc2c1)Nc1cccc(/C=C/c2ccc(NC(=O)NCC3CCOCC3)cc2)c1 | 8.85 | survival at 5 mg/kg (Mus musculus [2]): 0%; survival at 5 mg/kg (Mus musculus [3]): 80%; Activity (Mus musculus [4]): 0%; survival at 5 mg/kg (Mus musculus [5]): 0% |
| O=C(NCC1CCOCC1)Nc1ccc(/C=C/c2ccc3c(c2)OCO3)cc1 | 8.79 | viability at 48 h, 5 µM [6]: 98.2%; viability at 48 h, 5 µM [7]: 82.8%; viability at 48 h, 50 µM [8]: 69%; viability at 48 h, 50 µM [9]: 84.3%; Activity [10]: Non-Toxic; Activity (Mus musculus [11]): Active; pIC50 [12]: 8.32 |
| O=C(Cc1cccnc1)Nc1cccc(/C=C/c2ccc(NC(=O)NCC3CCOCC3)cc2)c1 | 8.69 | survival at 5 mg/kg (Mus musculus [2]): 20%; survival at 5 mg/kg (Mus musculus [3]): 70%; Activity (Mus musculus [4]): 0%; survival at 5 mg/kg (Mus musculus [5]): 0% |

Reference: ChEMBL document CHEMBL5543072, “Discovery of a novel lead characterized by a stilbene-extended scaffold against sepsis as soluble epoxide hydrolase inhibitors” (Eur J Med Chem, 2024)
